Laboratory results reported in US20170306388A1, “Method for the Identification of Inhibitors and Activators of Thymidylate Kinases” (Carnegie Mellon University, priority 2016, published 2017).

Columns and labels:
[1] = system: CaTMPK; test: One-dimensional proton NMR activity assay of CaTMPK; type: biochemical, Candida albicans; conditions: substance as phosphate acceptor (1 mM), 1 mM ATP as phosphate donor, pH 7.4
Description: Three different methods to assay for TMK activity have been reported in the literature. The first method uses isotope labeled [^14C] dTMP as substrate and utilizes the separation of dTMP and dTDP by thin-layer chromatography (TLC). The next method is a coupled enzymatic assay which involves the use of pyruvate kinase and lactate dehydrogenase to couple the production of ADP (a product of TMK activity) to the oxidation of NADH to NAD^+ which can be monitored spectrophotometrically at 340 nm. The third protocol involves the use of luciferin/luciferase to measure the concentration of unreacted ATP, or the amount to ADP in the TMK reaction mixture. All of these assays have inherent problems, ranging from the use of radioactivity to the potential inhibition of the coupling enzymes. Consequently, a simple one step assay to monitor the conversion of TMP to TDP was developed. The assay relies on the difference in the pyrimidine H6 proton chemical shifts of TMP and TDP (see FIG. 4). […] The new assay of the present invention also allows for the near-continuous measurement of product production, while current high-throughput assays are quench-stop type assays.
One-dimensional proton (^1H) NMR was used to monitor the activity of CaTMPK. The assay depends on the change in the chemical shift of the H6 proton (dTMP, AZTMP) or the H8 proton (dGMP) of the nucleobases upon the addition of the second phosphate group. The assay reaction included 50 mM Tris-HCl (pH 7.4), 50 mM KCl, 10 mM MgCl2, 1 mM ATP as the phosphate donor, 1 mM phosphate acceptor (dTMP, AZTMP or dGMP) and 10% D20. The reaction was initiated by the addition of CaTMPK to the reaction mix. A series of ^1H NMR spectra were acquired and the area (or height) of the proton line corresponding to the monophosphate forms of the acceptor molecule was plotted against time to calculate the initial rates of catalysis for each of the three substrates.

[2] = system: CaTMPK; test: NADH coupled enzyme activity assay (pyruvate kinase/lactate dehydrogenase) of CaTMPK; type: biochemical, Candida albicans; conditions: substance as phosphate acceptor, NADH decrease at 340 nm, pH 7.4
Protocol: The NADH coupled enzyme activity assay (Blondin, C., et al. (1994). Improved spectrophotometric assay of nucleoside monophosphate kinase activity using the pyruvate kinase/lactate dehydrogenase coupling system. Anal. Biochem 220, 219-221) is a well established assay to monitor the enzyme activity of thymidylate kinases. The assay was used to measure the activity of CaTMPK with the different phosphate acceptors (dTMP, AZTMP or dGMP). The reaction mixture consisted of 50 mM Tris-HCl (pH 7.4), 50 mM KCl, 10 mM MgCl2, 0.5 mM phosphoenolpyruvate, 0.15 mM NADH, 5 units/mL each of pyruvate kinase and lactate dehydrogenase. The reaction was initiated by adding the enzyme and the reaction rate was measured by monitoring the decrease of NADH concentration at 340 nm.

SMILES | kcat, nmr assay [1] [s⁻¹] | kcat, coupled enzyme assay [2] [s⁻¹]
Cc1cn([C@H]2C[C@H](O)[C@@H](COP(=O)(O)O)O2)c(=O)[nH]c1=O [dTMP, deoxythymidine monophosphate] | 8.33 | 6.85
Nc1nc2c(ncn2[C@H]2C[C@H](O)[C@@H](COP(=O)(O)O)O2)c(=O)[nH]1 [dGMP] | 0.00617 | 0.0083
Cc1cn([C@H]2C[C@H](N=[N+]=[N-])[C@@H](COP(=O)(O)O)O2)c(=O)[nH]c1=O [AZTMP, azidothymidine monophosphate] | 0.533 | 0.305
